Laboratory results reported in US11970452B2, “Modulators of mas-related G-protein receptor X2 and related products and methods” (Escient Pharmaceuticals, Inc., priority 2020, dated 2024).

Columns and labels:
Human LAD2 cells = assay: Mast Cell Beta-Hexosaminidase Release Assay (versus 500 nM Cortistatin-14); assay type: cell-based; conditions: 500 nM Cortistatin-14 agonist, read-out: MRGPR2 Antagonist Activity
Procedure: Human LAD2 cells (NIH) were maintained in an incubator at 37° C. with 5% CO2 and cultured in StemPro-34 serum-free media (Gibco 10639011) supplemented with 2 mM L-glutamine, 100 U/ml penicillin, […] streptomycin and 100 ng/ml SCF (Invitrogen PEP0860), at a concentration of 2-5×10^5 cells/mL, with hemidepletion every 1-2 weeks.
Cells were transferred to SCF-Free medium at 2.5×10^5 cells/mL and kept in an incubator overnight. On the day of the assay, cells were washed twice in Assay Buffer (final concentrations 10 mM HEPES, 137 mM NaCl, 5.6 mM D-glucose, 2.7 mM KCl, 1 mM MgCl, 1.8 mM CaCl2, 0.4 mM Na2HPO4.7H2O, 0.04% BSA, pH=7.4) and plated in a 96-well v-bottom plate at 20,000 cells per well in 80 μL Assay Buffer. Antagonist compounds solubilized at 10 mM in DMSO were diluted in Assay Buffer to 10× final desired concentrations as a 10-point curve (10 μM final top concentration with 1:3 serial dilutions) and 10 μL added per well. Plates were then incubated for 1 hour at 37° C. Agonists were diluted in Assay Buffer to 10× desired concentrations and 10 μL of the appropriate agonist added to each well. The final concentration of Cortistatin-14 (Tocris 3374) used in antagonist assays was 500 nM. Final concentrations of DMSO were kept consistent across the plate. Plates were then incubated in a warm air oven for 30 minutes at 37° C., followed by centrifugation at 4° C. for 5 minutes at 450×g. 50 μL supernatant from each well was then transferred to a 96-well flat bottom plate containing 100 μL substrate solution per well (3.5 mg/mL p-Nitrophenyl-N-acetyl-β-D-glucosaminide (Sigma 487052) in Citrate Buffer containing a final concentration of 40 mM Citric Acid, 20 mM Na2HPO4.7H2O, pH=4.5). To the cell pellets left in the remaining assay buffer, 150 μL 0.1% Triton-X-100 was then added to each well, resuspended by pipetting up and down, and 50 μL cell lysates transferred to a second 96-well flat bottom plate containing 100 μL substrate solution per well. Plates containing transferred supernatant and cell lysates were then incubated in a warm air oven for 90 minutes at 37° C. After incubation, 50 μL of 400 mM Glycine buffer (pH 10.7) was added into each well and the plate was read on a Molecular Devices SpectraMax iD5 plate reader (absorbance at 405 nm with reference filter at 620 nm). After background subtraction, the percentage degranulation (percent beta-hexosaminidase release) was calculated as 100×(supernatant values)/(supernatant+lysate values), followed by analysis using GraphPad Prism software to calculate an IC50 value for each compound.
(§1) The activity ranges are denoted as follows: “+++++” denotes antagonist activity <100 nM; “++++” denotes antagonist activity between 100 and 500 nM; “+++” denotes activity between 501 and 1000 nM; “++” denotes activity between 1001 and 2500 nM; and “+” denotes activity >2500 nM

human MRGPRX2 = biological target: T1, human MRGPRX2 (Homo sapiens, UniProt Q96LB1); assay: MRGPRX2 activity: IP-One HTRF antagonist assay versus 0.3 uM Cortistatin 14; assay type: cell-based; conditions: CHO cells expressing human MRGPRX2; IP-1 HTRF; versus 0.3 uM Cortistatin 14 agonist; read-out: MRGPR2 Antagonist Activity
T1 construct: expressed in transfected cells
T1 sequence (Q96LB1 1-330): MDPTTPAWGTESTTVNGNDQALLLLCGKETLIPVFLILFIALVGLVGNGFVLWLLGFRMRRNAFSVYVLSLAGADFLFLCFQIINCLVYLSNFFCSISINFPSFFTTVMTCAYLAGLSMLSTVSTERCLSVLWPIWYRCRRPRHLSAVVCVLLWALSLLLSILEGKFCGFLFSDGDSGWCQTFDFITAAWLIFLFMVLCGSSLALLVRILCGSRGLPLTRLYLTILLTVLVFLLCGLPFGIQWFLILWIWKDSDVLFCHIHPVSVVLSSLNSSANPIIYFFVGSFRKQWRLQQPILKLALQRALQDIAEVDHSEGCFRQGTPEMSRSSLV
Procedure: CHO cells stably transfected to express human MRGPRX2 were maintained in an incubator at 37° C. with 5% CO2 and grown in F12 (HAM) media with 10% fetal bovine serum (FBS), 1% Glutamax, 1% penicillin/streptomycin, 800 μg/mL Geneticin (G418), and 300 μg/mL Hygromycin B.
Cells were plated in a […] assay plate at 20,000 cells per well in 12 μL of Opti-MEM and kept in an incubator overnight. On the day of the assay, compounds solubilized at 10 mM in DMSO were added as a 10-point curve (30 uM final top concentration with 1:3 serial dilutions) using a Tecan D300E digital dispenser. Agonists were diluted in assay buffer (final concentrations of 5.7 mM Tris-HCl, 43 mM NaCl, 50 mM LiCl, pH=8) and 2 μL of the agonist Cortistatin 14 (CPC Scientific, catalog CORT-002) are added to each well. Final concentrations of agonists were 0.3 μM Cortistatin. Final concentrations of DMSO were kept consistent across the plate. Plates were incubated in the dark for 1 h at 37° C. and then for 1 h at room temperature. IP-1 standards and HTRF detection reagents were added according to the IP-One-Gq Kit purchased from Cisbio (part number 62IPAPEJ) and incubated in the dark for 1 h at room temperature. The plate was read on a Molecular Devices SpectraMax iD5 plate reader. The HTRF ratio was calculated from the raw data and graphed using GraphPad Prism to calculate an IC50 value for each compound.
as §1

`O=C(N[C@H]1CC[C@@H](Nc2nc(C(F)(F)F)nc3ccccc23)CC1)c1ccc(F)cc1` [1-7, 4-fluoro-N-[(1s,4s)-4-{[2-(trifluoromethyl)quinazolin-4-yl]amino}cyclohexyl]benzamide] gave an IC50 (Human LAD2 cells) of 501 to 1000 nM.
Work on `O=C(N[C@H]1CC[C@@H](Nc2cc(C(F)(F)F)nc3ccccc23)CC1)c1ccc(Cl)cc1` [3-10] yielded an IC50 (Human LAD2 cells) of 100 to 500 nM.
Molecule `CN(C)c1ccc(C(=O)N[C@H]2CC[C@@H](Nc3cc(C(F)(F)F)nc4ccccc34)CC2)cc1` [3-25] has an IC50 (human MRGPRX2) of 100 to 500 nM and an IC50 (Human LAD2 cells) of 100 to 500 nM.
For `O=C(N[C@H]1CC[C@@H](Nc2cc(C(F)(F)F)nc3ccccc23)CC1)c1ccccc1` [3-30], the IC50 (human MRGPRX2) was 100 to 500 nM and the IC50 (Human LAD2 cells) was 501 to 1000 nM.
In the case of `CC(=O)Nc1cccc(C(=O)N[C@H]2CC[C@@H](Nc3cc(C(F)(F)F)nc4ccc(Cl)cc34)CC2)c1` [4-7], the IC50 (human MRGPRX2) is reported as < 100 nM and the IC50 (Human LAD2 cells) is reported as 100 to 500 nM.
In the case of `CNc1ccc(C(=O)N[C@H]2CC[C@@H](Nc3cc(C(F)(F)F)nc4ccc(Cl)cc34)CC2)cc1` [4-9], the IC50 (Human LAD2 cells) is reported as < 100 nM.
`O=C(N[C@H]1CC[C@@H](Nc2cc(C(F)(F)F)nc3ccc(Cl)cc23)CC1)c1ccnc2[nH]ccc12` [4-139] was tested, and the IC50 (Human LAD2 cells) was < 100 nM.
With `N#Cc1cccc(C(=O)N[C@H]2CC[C@@H](Nc3nc(C(F)(F)F)nc4ccccc34)CC2)c1` [4-288] the IC50 (Human LAD2 cells) was 501 to 1000 nM.
